According to US20030086820A1 (priority 2001, published 2003):
Like-named read-outs stand apart in the source and are kept apart here.

Key:
BSA protein = BSA protein (Bos taurus, UniProt P02769)
[1] = tested on: ileal fluid dependent organism (IFDO)
prion protein (PRP^SC) = prion protein (PRP^SC) (Homo sapiens, UniProt P04156)

Sequence of BSA protein (P02769 25-607 limits assumed): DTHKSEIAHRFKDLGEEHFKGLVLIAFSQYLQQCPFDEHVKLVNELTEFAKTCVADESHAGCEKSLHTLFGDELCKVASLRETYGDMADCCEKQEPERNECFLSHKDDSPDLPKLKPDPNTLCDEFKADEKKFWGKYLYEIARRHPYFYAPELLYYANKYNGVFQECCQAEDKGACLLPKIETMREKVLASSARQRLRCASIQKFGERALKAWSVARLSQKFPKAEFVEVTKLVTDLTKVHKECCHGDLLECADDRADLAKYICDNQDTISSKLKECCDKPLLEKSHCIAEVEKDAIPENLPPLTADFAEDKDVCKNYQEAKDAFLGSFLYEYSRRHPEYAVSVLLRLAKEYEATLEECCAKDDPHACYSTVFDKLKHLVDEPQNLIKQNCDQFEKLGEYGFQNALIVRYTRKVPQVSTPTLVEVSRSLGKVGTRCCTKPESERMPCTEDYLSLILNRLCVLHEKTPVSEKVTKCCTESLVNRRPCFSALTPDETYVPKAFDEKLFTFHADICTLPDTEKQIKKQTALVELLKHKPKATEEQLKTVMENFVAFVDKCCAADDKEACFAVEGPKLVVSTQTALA

OO [Vapor Hydrogen Peroxide, hydrogen peroxide]
breakdown of protein (gel electrophoresis) (BSA protein): effectively destroys proteins | log reduction in IFDO (IFDO organisms): six | number of colonies developed from IFDO remaining on the vacuum treated samples (IFDO organisms): less than 1 log | log reduction in IFDO [1]: six | number of colonies developed on the vacuum treated samples [1]: less than 1 log | deactivating the prion model (IFDO): vacuum pulses versus atmospheric conditions ([1]; FIG. 9, atmospheric 1.5 mg/l 30° C. or 3 mg/l 40° C., 15 minutes): more effective | PRP^SC Detected (prion protein (PRP^SC); 25° C., 1.7 mg/L, 3 hours exposure, atmospheric pressure): No | PRP^SC Detected (prion protein (PRP^SC); 30° C., 2.2 mg/L, vacuum conditions, six pulses of vapor): No | PRP^SC Detected (prion protein (PRP^SC); 50° C., 7.0 mg/L, vacuum conditions, three pulses of vapor): No | destruction of the harmful form of the prion protein (prion protein (PRP^SC); summary of Table 7, no precleaning step): effective at destruction of the harmful form of the prion protein
